{
  "source": "patent US4937243A",
  "about": "“Thiol carboxylic acid derivatives and their use as colagenase inhibitors” (Beecham Group p.l.c., priority 1986, dated 1990)",
  "data": [
    {"target": "T1, purified rabbit bone collagenase (Oryctolagus cuniculus, UniProt P13943)", "T1 construct": "from tissue; host or cells: rabbit bone", "T1 sequence (P13943 99-468)": "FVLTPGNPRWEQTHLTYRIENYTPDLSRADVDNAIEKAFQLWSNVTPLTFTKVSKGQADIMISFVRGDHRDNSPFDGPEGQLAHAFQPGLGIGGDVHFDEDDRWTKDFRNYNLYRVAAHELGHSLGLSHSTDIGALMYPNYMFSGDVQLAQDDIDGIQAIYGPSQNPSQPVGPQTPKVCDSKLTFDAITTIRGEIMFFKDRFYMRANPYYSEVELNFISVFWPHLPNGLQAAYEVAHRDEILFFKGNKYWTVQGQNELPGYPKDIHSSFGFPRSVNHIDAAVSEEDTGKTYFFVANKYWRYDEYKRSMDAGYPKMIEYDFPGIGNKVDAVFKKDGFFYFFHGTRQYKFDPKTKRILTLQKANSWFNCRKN", "assay": "Collagenase inhibitor assay (14C-acetylated rat skin Type I collagen as substrate)", "type": "biochemical", "conditions": "5-15 min preincubation at 37° C., 37° C. overnight, read-out: IC50 (amount of compound which inhibits a known amount of enzyme by 50%)", "description": "The test is performed essentially as in Cawston and Barrett Anal. Biochem. 99, 340-345 (1979). Compounds for testing are dissolved in methanol and added to purified rabbit bone collagenase in buffer. After a 5-15 min incubation at 37° C., the assay tubes are cooled to 4° C. and ^14 C-acetylated rat skin Type I collagen is added. The assay tubes are incubated at 37° C. overnight. The ^14 C-collagen forms insoluble fibrils which are the substrate for the enzyme.\nTo terminate the assay, the assay tubes are spun at 12000 rpm for 15 min. Undigested ^14 C-collagen is pelleted, digested ^14 C-collagen is found as soluble peptides in the supernatant. A sample of the supernatant is taken for liquid scintillation counting.", "units": {"IC50": "nM"}, "values": [
      {"compound": "CNC(=O)[C@H](Cc1ccc(OC)cc1)NC(=O)C(CC(C)C)C(S)CC(=O)OC", "note": "(mixture of isomers) [2 mixture of diastereoisomers]", "IC50": 100},
      {"compound": "CNC(=O)[C@H](Cc1ccc(OC)cc1)NC(=O)C(CC(C)C)C(S)CC(=O)OC", "note": "(single isomer, unassigned) [2 A]", "IC50": "3.9 to 6.4"},
      {"compound": "CNC(=O)[C@H](Cc1ccc(OC)cc1)NC(=O)C(CC(C)C)C(S)CC(=O)OC", "note": "(single isomer, unassigned) [2 B]", "IC50": 72},
      {"compound": "CNC(=O)[C@H](Cc1ccc(OC)cc1)NC(=O)C(CC(C)C)C(S)CC(=O)OCc1ccccc1", "note": "(single isomer, unassigned) [4 A]", "IC50": 31},
      {"compound": "CNC(=O)[C@H](Cc1ccc(OC)cc1)NC(=O)C(CC(C)C)C(S)CC(=O)OCc1ccccc1", "note": "(single isomer, unassigned) [4 B]", "IC50": 270},
      {"compound": "CNC(=O)[C@H](Cc1ccc(OC)cc1)NC(=O)C(CC(C)C)C(S)CC(=O)OCc1ccccc1", "note": "(single isomer, unassigned) [4 C]", "IC50": 230},
      {"compound": "CNC(=O)[C@H](Cc1ccc(OC)cc1)NC(=O)C(CC(C)C)C(S)CC(=O)OCc1ccccc1", "note": "(single isomer, unassigned) [4 D]", "IC50": 12600},
      {"compound": "CNC(=O)CC(S)C(CC(C)C)C(=O)N[C@@H](Cc1ccc(OC)cc1)C(=O)NC", "note": "(single isomer, unassigned) [8 A]", "IC50": "4.7 to 14"},
      {"compound": "CNC(=O)[C@H](Cc1ccccc1)NC(=O)C(CC(C)C)C(S)CC(=O)OC", "note": "(single isomer, unassigned) [10 A]", "IC50": 8.3}
    ]}
  ]
}
